Results: patent US20060286182A1, “Synergistic cinnamon combinations and methods for enhancing insulin activity” (Abeille Pharmaceuticals, Inc., priority 2005, published 2006)

System: 3T3-L1 adipocytes
Assay: Oil Red O staining of triglyceride content (lipogenesis) in differentiating 3T3-L1 adipocytes
Type: cell-based, murine
Details: for increase in triglyceride content (lipogenic/adipogenic increase) relative to the solvent control: 50 μg test material/mL, Day 0 to Day 7 of differentiation
Source text: The Model—The 3T3-L1 murine fibroblast model is used to study the potential effects of compounds on adipocyte differentiation and adipogenesis.
As preadipocytes, 3T3-L1 cells have a fibroblastic appearance. They replicate in culture until they form a confluent monolayer, after which cell-cell contact triggers Go/G1 growth arrest. Terminal differentiation of 3T3-L1 cells to adipocytes depends on proliferation of both pre- and postconfluent preadipocytes. Subsequent stimulation with 3-isobutyl-1-methylxanthane, dexamethasone, and high dose of insulin (MDI) for two days prompts these cells to undergo postconfluent mitotic clonal expansion, exit the cell cycle, and begin to express adipocyte-specific genes. Approximately five days after induction of differentiation, more than 90% of the cells display the characteristic lipid-filled adipocyte phenotype.
Cell culture and Treatment—The murine fibroblast cell line 3T3-L1 was obtained from the American Type Culture Collection (Manasus, Va.) and sub-cultured according to instructions from the supplier. For experiments, cells were cultured in DMEM containing 10% FBS-HI, with added 50 units penicillin/mL and 50 μg streptomycin/mL, and maintained in log phase prior to experimental setup. Cells were grown in a 5% CO2 humidified incubator at 37° C. Components of the pre-confluent medium included (1) 10% FBS/DMEM containing 4.5 g glucose/L; (2) 50 U/mL penicillin; and (3) 50 μg/mL streptomycin. Growth medium was made by adding 50 mL of heat inactivated FBS and 5 mL of penicillin/streptomycin to 500 mL DMEM. This medium was stored at 4° C. Before use, the medium was warmed to 37° C. in a water bath.
3T3-T1 cells were seeded at an initial density of about 4×10^4 cells/cm^2 in 24-well plates. For two days, the cells were allowed to grow to reach confluence. Following confluence, the cells were forced to differentiate into adipocytes by the addition of differentiation medium; this medium consisted of (1) 10% FBS/DMEM (high glucose); (2) 0.5 mM methylisobutylxanthine; (3) 0.5 μM dexamethasone and (4) 10 Hg/mL insulin. After three days, the medium was changed to post-differentiation medium consisting of 10 μg/mL insulin in 10% FBS/DMEM.
Test material was added in dimethyl sulfoxide at Day 0 of differentiation and every two days throughout the maturation phase (Day 7). Whenever fresh media was added, fresh test material was also added. As a positive control, troglitazone was added to achieve a final concentration of 4.4 μg/mL (10 μM). Metformin, Sample A and the metformin/Sample A combinations of 1:10, 1:5 and 1:2.5 were all tested at 50 μg test material/mL. Metformin, Sample B and the metformin/Sample B combination of 1:10 were all tested at 50 μg test material/mL.

Cc1cnc(C(=O)NCCc2ccc(S(=O)(=O)NC(=O)NC3CCCCC3)cc2)cn1 [Glipizide]
increase in triglyceride content (lipogenic/adipogenic increase) relative to the solvent control: 40%
increase in triglyceride content (lipogenic/adipogenic increase) relative to the solvent control (listed as glipizide): increased triglyceride biosynthesis

Cc1c(C)c2c(c(C)c1O)CCC(C)(COc1ccc(CC3SC(=O)NC3=O)cc1)O2 (stereo not shown) [Troglitazone, troglitazone]
increase in triglyceride content of the 3T3-L1 cells (positive control, 4.4 μg/mL (10 μM), Day 0 to Day 7, relative to solvent control): 54%

CN(C)C(=N)N=C(N)N [metformin]
increase in triglyceride content (lipogenic/adipogenic increase) relative to the solvent control: four
